Source: patent US8000781B2, “Method of evaluating effect of prolonging QT interval in electrocardiogram” (Eisai R&D Management Co., Ltd., priority 2005, dated 2011)
Like-named read-outs stand apart in the source and are kept apart here.

How the values were obtained:
[1] = system: hamster under mixed anesthesia with pentobarbital and xylazine; settings: n=5; for Influence on the QRS interval / Influence on the RR interval: over the doses tested
anesthetized dogs = settings: calculated on the basis of the results of the cited report; cited from earlier work

Compound | Degree of prolongation of the QT interval ([1]; 100 μg/kg iv) | Influence on the PQ interval ([1]; iv, doses tested 1, 10 and 100 μg/kg) | Influence on the QRS interval ([1]; iv) | Influence on the RR interval ([1]; iv) | Single dose for intravenous administration providing 10% of prolongation of the duration of monophasic action potential (anesthetized dogs) [mg/kg] | Degree of prolongation of the QT interval ([1]; 1 mg/kg iv)
COc1cc(N)c(Cl)cc1C(=O)NC1CCN(CCCOc2ccc(F)cc2)CC1OC (centres unmarked) [cisapride] | about 20% | did not significantly affect | did not significantly affect | did not significantly affect | 0.1 | –
CC(C)(C)c1ccc(C(O)CCCN2CCC(C(O)(c3ccccc3)c3ccccc3)CC2)cc1 (centres unmarked) [terfenadine] | – | – | did not significantly affect | did not significantly affect | – | about 20%
